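Abbreviation: GI50, concentration required for 50% inhibition of growth. TGI: concentration producing complete growth inhibition.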
Legend:
Experiment in all cases: NCI tumour cell line growth inhibition, 384-well format
HL-60(TB) leukemia = test system: HL-60(TB) leukemia
RPMI-8226 leukemia = test system: RPMI-8226 leukemia
SK-OV-3 ovarian = test system: SK-OV-3 ovarian
NCI-H522 lung = test system: NCI-H522 lung
MDA-MB-468 breast = test system: MDA-MB-468 breast
ACHN renal = test system: ACHN renal
NCI-H460 NSCLC = test system: NCI-H460 NSCLC
SF-295 CNS = test system: SF-295 CNS
RXF 393 renal = test system: RXF 393 renal
MOLT-4 leukemia = test system: MOLT-4 leukemia
K-562 leukemia = test system: K-562 leukemia
BT-549 breast = test system: BT-549 breast
NCI-H23 lung = test system: NCI-H23 lung
CCRF-CEM leukemia = test system: CCRF-CEM leukemia
HT29 colon = test system: HT29 colon
MALME-3M melanoma = test system: MALME-3M melanoma
SN12C renal = test system: SN12C renal
PC-3 prostate = test system: PC-3 prostate
CAKI-1 renal = test system: CAKI-1 renal
UO-31 renal = test system: UO-31 renal
SK-MEL-28 melanoma = test system: SK-MEL-28 melanoma
OVCAR-8 ovarian = test system: OVCAR-8 ovarian
KM12 colon = test system: KM12 colon
IGROV1 ovarian = test system: IGROV1 ovarian
T-47D breast = test system: T-47D breast
A549 NSCLC = test system: A549 NSCLC
HOP-62 NSCLC = test system: HOP-62 NSCLC
HCC-2998 colon = test system: HCC-2998 colon
U251 glioblastoma = test system: U251 glioblastoma
NCI/ADR-RES ovarian = test system: NCI/ADR-RES ovarian
HOP-92 NSCLC = test system: HOP-92 NSCLC
SK-MEL-5 melanoma = test system: SK-MEL-5 melanoma
NCI-H226 lung = test system: NCI-H226 lung
HCT-15 colon = test system: HCT-15 colon
786-0 renal = test system: 786-0 renal
MDA-MB-435 melanoma = test system: MDA-MB-435 melanoma
HCT-116 colon = test system: HCT-116 colon
UACC-257 melanoma = test system: UACC-257 melanoma
COLO 205 colon = test system: COLO 205 colon
SNB-19 CNS = test system: SNB-19 CNS
SW-620 colon = test system: SW-620 colon
TK-10 renal = test system: TK-10 renal
EKVX NSCLC = test system: EKVX NSCLC
M14 melanoma = test system: M14 melanoma
OVCAR-5 ovarian = test system: OVCAR-5 ovarian
MCF7 breast = test system: MCF7 breast
LOX IMVI melanoma = test system: LOX IMVI melanoma
OVCAR-3 ovarian = test system: OVCAR-3 ovarian
DU-145 prostate = test system: DU-145 prostate
OVCAR-4 ovarian = test system: OVCAR-4 ovarian
UACC-62 melanoma = test system: UACC-62 melanoma

Cc1cc(-c2nc(-c3ccc(OC(F)(F)F)cc3)no2)nn1Cc1ccnc(N2CCN(C3CC3)CC2)c1
GI50 (HL-60(TB) leukemia): 1.73 µM | TGI (HL-60(TB) leukemia): 11 µM | GI50 (RPMI-8226 leukemia): < 0.01 µM | TGI (RPMI-8226 leukemia): > 100 µM | GI50 (SK-OV-3 ovarian): < 0.01 µM | TGI (SK-OV-3 ovarian): > 100 µM | GI50 (NCI-H522 lung): < 0.01 µM | TGI (NCI-H522 lung): > 100 µM | GI50 (MDA-MB-468 breast): < 0.01 µM | TGI (MDA-MB-468 breast): < 0.01 µM | GI50 (ACHN renal): 12.6 µM | TGI (ACHN renal): > 100 µM | GI50 (NCI-H460 NSCLC): < 0.01 µM | TGI (NCI-H460 NSCLC): < 0.01 µM | GI50 (SF-295 CNS): > 100 µM | TGI (SF-295 CNS): > 100 µM | GI50 (RXF 393 renal): < 0.01 µM | TGI (RXF 393 renal): < 0.01 µM | GI50 (MOLT-4 leukemia): < 0.01 µM | TGI (MOLT-4 leukemia): 7.05 µM | GI50 (K-562 leukemia): < 0.01 µM | TGI (K-562 leukemia): 44.9 µM | GI50 (BT-549 breast): 2.06 µM | TGI (BT-549 breast): 35.9 µM | GI50 (NCI-H23 lung): < 0.01 µM | TGI (NCI-H23 lung): 84.8 µM | GI50 (CCRF-CEM leukemia): < 0.01 µM | TGI (CCRF-CEM leukemia): < 0.01 µM | GI50 (HT29 colon): 2.43 µM | TGI (HT29 colon): 12.3 µM | GI50 (MALME-3M melanoma): 4.82 µM | TGI (MALME-3M melanoma): 18.3 µM | GI50 (SN12C renal): 7.01 µM | TGI (SN12C renal): > 100 µM | GI50 (PC-3 prostate): 2.99 µM | TGI (PC-3 prostate): 66.9 µM | GI50 (CAKI-1 renal): 14.9 µM | TGI (CAKI-1 renal): > 100 µM | GI50 (UO-31 renal): 15.7 µM | TGI (UO-31 renal): > 100 µM | GI50 (SK-MEL-28 melanoma): 12.9 µM | TGI (SK-MEL-28 melanoma): 28.7 µM | GI50 (OVCAR-8 ovarian): < 0.01 µM | TGI (OVCAR-8 ovarian): > 100 µM | GI50 (KM12 colon): 5.2 µM | TGI (KM12 colon): 70.4 µM | GI50 (IGROV1 ovarian): 9.15 µM | TGI (IGROV1 ovarian): > 100 µM | GI50 (T-47D breast): < 0.01 µM | TGI (T-47D breast): 1.5 µM | GI50 (A549 NSCLC): < 0.01 µM | TGI (A549 NSCLC): > 100 µM | GI50 (HOP-62 NSCLC): < 0.01 µM | TGI (HOP-62 NSCLC): 20.7 µM | GI50 (HCC-2998 colon): 4.19 µM | TGI (HCC-2998 colon): 20.2 µM | GI50 (U251 glioblastoma): 1.83 µM | TGI (U251 glioblastoma): > 100 µM | GI50 (NCI/ADR-RES ovarian): < 0.01 µM | TGI (NCI/ADR-RES ovarian): > 100 µM | GI50 (HOP-92 NSCLC): 3.45 µM | TGI (HOP-92 NSCLC): > 100 µM | GI50 (SK-MEL-5 melanoma): < 0.01 µM | TGI (SK-MEL-5 melanoma): 2.24 µM | GI50 (NCI-H226 lung): 4.01 µM | TGI (NCI-H226 lung): > 100 µM | GI50 (HCT-15 colon): 1.44 µM | TGI (HCT-15 colon): 18.8 µM | GI50 ([…]-0 renal): 4.88 µM | TGI (786-0 renal): > 100 µM | GI50 (MDA-MB-435 melanoma): 5.96 µM | TGI (MDA-MB-435 melanoma): > 100 µM | GI50 (HCT-116 colon): < 0.01 µM | TGI (HCT-116 colon): > 100 µM | GI50 (UACC-257 melanoma): < 0.01 µM | TGI (UACC-257 melanoma): 3.31 µM | GI50 (COLO 205 colon): 5.77 µM | TGI (COLO 205 colon): > 100 µM | GI50 (SNB-19 CNS): 10.9 µM | TGI (SNB-19 CNS): > 100 µM | GI50 (SW-620 colon): 12.1 µM | TGI (SW-620 colon): 89.7 µM | GI50 (TK-10 renal): 40.9 µM | TGI (TK-10 renal): > 100 µM | GI50 (EKVX NSCLC): < 0.01 µM | TGI (EKVX NSCLC): 62.6 µM | GI50 (M14 melanoma): 2.13 µM | TGI (M14 melanoma): 7.15 µM | GI50 (OVCAR-5 ovarian): 15.7 µM | TGI (OVCAR-5 ovarian): 86.1 µM | GI50 (MCF7 breast): 0.47 µM | TGI (MCF7 breast): 15.4 µM | GI50 (LOX IMVI melanoma): < 0.01 µM | TGI (LOX IMVI melanoma): 14.1 µM | GI50 (OVCAR-3 ovarian): 6.51 µM | TGI (OVCAR-3 ovarian): > 100 µM | GI50 (DU-145 prostate): 20.3 µM | TGI (DU-145 prostate): > 100 µM | GI50 (OVCAR-4 ovarian): 28.7 µM | TGI (OVCAR-4 ovarian): > 100 µM | GI50 (UACC-62 melanoma): 9.33 µM | TGI (UACC-62 melanoma): 21.8 µM
